Legend:
barnyard grass [1] = test: Test Example 3: herbicidal effect by foliage application, Wagner pot (Table 18, symbol H); type: in vivo, barnyard grass (Echinochloa crus-galli); conditions: 320 g/ha
In short: (§1)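 Plants were sown in alluvial soil held under 0.1–0.5 cm standing water and grown 14 days in a greenhouse at 25–30 °C. An emulsifiable formulation, water-diluted to the set dose, was then sprayed onto the foliage, and effects were scored three weeks later using previously defined criteria.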

Chinese sprangletop = test: Test Example 3: herbicidal effect by foliage application, Wagner pot (Table 18, symbol D); type: in vivo, chinese sprangletop (Leptochloa chinensis); conditions: 320 g/ha
In short: as §1

rice flat sedge = test: Test Example 3: herbicidal effect by foliage application, Wagner pot (Table 18, symbol E); type: in vivo, rice flat sedge (Cyperus iria); conditions: 320 g/ha
In short: as §1

southern crabgrass [2] = test: Test Example 4: herbicidal effect by soil treatment (Table 19, symbol F); type: in vivo, southern crabgrass (Digitaria ciliaris); conditions: amount of applied herbicide 320 g/ha
In short: (§2)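 Scoring uses the grading scale of an earlier test, three weeks post-application. Treatment consists of spraying a diluted emulsion formulation across the surface of sterilized diluvial soil in which seeds are buried near 1.5 cm deep; boxes are kept in a greenhouse between 25° C. and 30° C.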

green foxtail [3] = test: Test Example 4: herbicidal effect by soil treatment (Table 19, symbol G); type: in vivo, green foxtail (Setaria viridis); conditions: amount of applied herbicide 320 g/ha
In short: as §2

barnyard grass [4] = test: Test Example 4: herbicidal effect by soil treatment (Table 19, symbol H); type: in vivo, barnyard grass (Echinochloa crus-galli); conditions: amount of applied herbicide 320 g/ha
In short: as §2

wild oat [5] = test: Test Example 4: herbicidal effect by soil treatment (Table 19, symbol I); type: in vivo, wild oat (Avena fatua); conditions: amount of applied herbicide 320 g/ha
In short: as §2

blackgrass [6] = test: Test Example 4: herbicidal effect by soil treatment (Table 19, symbol J); type: in vivo, blackgrass (Alopecurus myosuroides); conditions: amount of applied herbicide 320 g/ha
In short: as §2

Italian ryegrass [7] = test: Test Example 4: herbicidal effect by soil treatment (Table 19, symbol K); type: in vivo, Italian ryegrass (Lolium multiflorum); conditions: amount of applied herbicide 320 g/ha
In short: as §2

windgrass [8] = test: Test Example 4: herbicidal effect by soil treatment (Table 19, symbol L); type: in vivo, windgrass (Apera spica-venti); conditions: amount of applied herbicide 320 g/ha
In short: as §2

velvetleaf [9] = test: Test Example 4: herbicidal effect by soil treatment (Table 19, symbol M); type: in vivo, velvetleaf (Abutilon theophrasti); conditions: amount of applied herbicide 320 g/ha
In short: as §2

redroot pigweed [10] = test: Test Example 4: herbicidal effect by soil treatment (Table 19, symbol N); type: in vivo, redroot pigweed (Amaranthus retroflexus); conditions: amount of applied herbicide 320 g/ha
In short: as §2

lambsquarters [11] = test: Test Example 4: herbicidal effect by soil treatment (Table 19, symbol O); type: in vivo, lambsquarters (Chenopodium album); conditions: amount of applied herbicide 320 g/ha
In short: as §2

chickweed [12] = test: Test Example 4: herbicidal effect by soil treatment (Table 19, symbol P); type: in vivo, common chickweed (Stellaria media); conditions: amount of applied herbicide 320 g/ha
In short: as §2

false cleavers [13] = test: Test Example 4: herbicidal effect by soil treatment (Table 19, symbol Q); type: in vivo, false cleavers (Galium spurium); conditions: amount of applied herbicide 320 g/ha
In short: as §2

persian speedwell [14] = test: Test Example 4: herbicidal effect by soil treatment (Table 19, symbol R); type: in vivo, Persian speedwell (Veronica persica); conditions: amount of applied herbicide 320 g/ha
In short: as §2

southern crabgrass [15] = test: Test Example 5: herbicidal effect by foliage application, plastic box (Table 20, symbol F); type: in vivo, southern crabgrass (Digitaria ciliaris); conditions: foliage application, 320 g/ha, three weeks after application
In short: (§3)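 Post-emergence foliar test in sterilized diluvial soil. Compound applied as water-diluted emulsion at a predetermined rate to 14-day-old plants; evaluation at three weeks.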

green foxtail [16] = test: Test Example 5: herbicidal effect by foliage application, plastic box (Table 20, symbol G); type: in vivo, green foxtail (Setaria viridis); conditions: foliage application, 320 g/ha, three weeks after application
In short: as §3

barnyard grass [17] = test: Test Example 5: herbicidal effect by foliage application, plastic box (Table 20, symbol H); type: in vivo, barnyard grass (Echinochloa crus-galli); conditions: foliage application, 320 g/ha, three weeks after application
In short: as §3

wild oat [18] = test: Test Example 5: herbicidal effect by foliage application, plastic box (Table 20, symbol I); type: in vivo, wild oat (Avena fatua); conditions: foliage application, 320 g/ha, three weeks after application
In short: as §3

blackgrass [19] = test: Test Example 5: herbicidal effect by foliage application, plastic box (Table 20, symbol J); type: in vivo, blackgrass (Alopecurus myosuroides); conditions: foliage application, 320 g/ha, three weeks after application
In short: as §3

Italian ryegrass [20] = test: Test Example 5: herbicidal effect by foliage application, plastic box (Table 20, symbol K); type: in vivo, Italian ryegrass (Lolium multiflorum); conditions: foliage application, 320 g/ha, three weeks after application
In short: as §3

windgrass [21] = test: Test Example 5: herbicidal effect by foliage application, plastic box (Table 20, symbol L); type: in vivo, windgrass (Apera spica-venti); conditions: foliage application, 320 g/ha, three weeks after application
In short: as §3

velvetleaf [22] = test: Test Example 5: herbicidal effect by foliage application, plastic box (Table 20, symbol M); type: in vivo, velvetleaf (Abutilon theophrasti); conditions: foliage application, 320 g/ha, three weeks after application
In short: as §3

redroot pigweed [23] = test: Test Example 5: herbicidal effect by foliage application, plastic box (Table 20, symbol N); type: in vivo, redroot pigweed (Amaranthus retroflexus); conditions: foliage application, 320 g/ha, three weeks after application
In short: as §3

lambsquarters [24] = test: Test Example 5: herbicidal effect by foliage application, plastic box (Table 20, symbol O); type: in vivo, lambsquarters (Chenopodium album); conditions: foliage application, 320 g/ha, three weeks after application
In short: as §3

chickweed [25] = test: Test Example 5: herbicidal effect by foliage application, plastic box (Table 20, symbol P); type: in vivo, common chickweed (Stellaria media); conditions: foliage application, 320 g/ha, three weeks after application
In short: as §3

false cleavers [26] = test: Test Example 5: herbicidal effect by foliage application, plastic box (Table 20, symbol Q); type: in vivo, false cleavers (Galium spurium); conditions: foliage application, 320 g/ha, three weeks after application
In short: as §3

persian speedwell [27] = test: Test Example 5: herbicidal effect by foliage application, plastic box (Table 20, symbol R); type: in vivo, Persian speedwell (Veronica persica); conditions: foliage application, 320 g/ha, three weeks after application
In short: as §3

SMILES | herbicidal effect on H (barnyard grass), rating 0-5 (barnyard grass [1]) | herbicidal effect on D (Chinese sprangletop), rating 0-5 (Chinese sprangletop) | herbicidal effect on E (rice flat sedge), rating 0-5 (rice flat sedge) | herbicidal effect rating, F: southern crabgrass (southern crabgrass [2]) | herbicidal effect rating, G: green foxtail (green foxtail [3]) | herbicidal effect rating, H: barnyard grass (barnyard grass [4]) | herbicidal effect rating, I: wild oat (wild oat [5]) | herbicidal effect rating, J: blackgrass (blackgrass [6]) | herbicidal effect rating, K: Italian ryegrass (Italian ryegrass [7]) | herbicidal effect rating, L: windgrass (windgrass [8]) | herbicidal effect rating, M: velvetleaf (velvetleaf [9]) | herbicidal effect rating, N: redroot pigweed (redroot pigweed [10]) | herbicidal effect rating, O: lambsquarters (lambsquarters [11]) | herbicidal effect rating, P: chickweed (chickweed [12]) | herbicidal effect rating, Q: false cleavers (false cleavers [13]) | herbicidal effect rating, R: persian speedwell (persian speedwell [14]) | herbicidal effect grade, F: southern crabgrass (southern crabgrass [15]) | herbicidal effect grade, G: green foxtail (green foxtail [16]) | herbicidal effect grade, H: barnyard grass (barnyard grass [17]) | herbicidal effect grade, I: wild oat (wild oat [18]) | other results
Cc1nn(C)c(=O)c(-c2c(-c3ccc(F)c(F)c3)sc3ccccc23)c1O [1-046] | 3 (Herbicidal rate of 40% or more and less than 70%) | 0 (Herbicidal rate of 5% or less (almost no effect)) | 5 (Herbicidal rate of 90% or more (almost completely withered)) | 0 (Herbicidal rate of 5% or less (almost no effect)) | 0 (Herbicidal rate of 5% or less (almost no effect)) | 0 (Herbicidal rate of 5% or less (almost no effect)) | 0 (Herbicidal rate of 5% or less (almost no effect)) | 0 (Herbicidal rate of 5% or less (almost no effect)) | 0 (Herbicidal rate of 5% or less (almost no effect)) | 0 (Herbicidal rate of 5% or less (almost no effect)) | 0 (Herbicidal rate of 5% or less (almost no effect)) | 0 (Herbicidal rate of 5% or less (almost no effect)) | 0 (Herbicidal rate of 5% or less (almost no effect)) | 5 (Herbicidal rate of 90% or more (almost completely withered)) | 5 (Herbicidal rate of 90% or more (almost completely withered)) | 5 (Herbicidal rate of 90% or more (almost completely withered)) | 4 (Herbicidal rate of 70% or more and less than 90%) | 4 (Herbicidal rate of 70% or more and less than 90%) | 4 (Herbicidal rate of 70% or more and less than 90%) | 3 (Herbicidal rate of 40% or more and less than 70%) | herbicidal effect grade, J: blackgrass (blackgrass [19]): 0 (Herbicidal rate of 5% or less (almost no effect)); herbicidal effect grade, K: Italian ryegrass (Italian ryegrass [20]): 3 (Herbicidal rate of 40% or more and less than 70%); herbicidal effect grade, L: windgrass (windgrass [21]): 0 (Herbicidal rate of 5% or less (almost no effect)); herbicidal effect grade, M: velvetleaf (velvetleaf [22]): 5 (Herbicidal rate of 90% or more (almost completely withered)); herbicidal effect grade, N: redroot pigweed (redroot pigweed [23]): 5 (Herbicidal rate of 90% or more (almost completely withered)); herbicidal effect grade, O: lambsquarters (lambsquarters [24]): 4 (Herbicidal rate of 70% or more and less than 90%); herbicidal effect grade, P: chickweed (chickweed [25]): 5 (Herbicidal rate of 90% or more (almost completely withered)); herbicidal effect grade, Q: false cleavers (false cleavers [26]): 5 (Herbicidal rate of 90% or more (almost completely withered)); herbicidal effect grade, R: persian speedwell (persian speedwell [27]): 5 (Herbicidal rate of 90% or more (almost completely withered))
COc1cccc(-c2sc3ccccc3c2-c2c(O)c(C)nn(C)c2=O)c1F [1-048] | 4 (Herbicidal rate of 70% or more and less than 90%) | 5 (Herbicidal rate of 90% or more (almost completely withered)) | 4 (Herbicidal rate of 70% or more and less than 90%) | 0 (Herbicidal rate of 5% or less (almost no effect)) | 0 (Herbicidal rate of 5% or less (almost no effect)) | 0 (Herbicidal rate of 5% or less (almost no effect)) | 0 (Herbicidal rate of 5% or less (almost no effect)) | 0 (Herbicidal rate of 5% or less (almost no effect)) | 0 (Herbicidal rate of 5% or less (almost no effect)) | 0 (Herbicidal rate of 5% or less (almost no effect)) | 0 (Herbicidal rate of 5% or less (almost no effect)) | 0 (Herbicidal rate of 5% or less (almost no effect)) | 0 (Herbicidal rate of 5% or less (almost no effect)) | 3 (Herbicidal rate of 40% or more and less than 70%) | 0 (Herbicidal rate of 5% or less (almost no effect)) | 1 (Herbicidal rate of 5% or more and less than 20%) | 0 (Herbicidal rate of 5% or less (almost no effect)) | 0 (Herbicidal rate of 5% or less (almost no effect)) | 0 (Herbicidal rate of 5% or less (almost no effect)) | 0 (Herbicidal rate of 5% or less (almost no effect)) | herbicidal effect grade, J: blackgrass (blackgrass [19]): 0 (Herbicidal rate of 5% or less (almost no effect)); herbicidal effect grade, K: Italian ryegrass (Italian ryegrass [20]): 0 (Herbicidal rate of 5% or less (almost no effect)); herbicidal effect grade, L: windgrass (windgrass [21]): 0 (Herbicidal rate of 5% or less (almost no effect)); herbicidal effect grade, M: velvetleaf (velvetleaf [22]): 0 (Herbicidal rate of 5% or less (almost no effect)); herbicidal effect grade, N: redroot pigweed (redroot pigweed [23]): 0 (Herbicidal rate of 5% or less (almost no effect)); herbicidal effect grade, O: lambsquarters (lambsquarters [24]): 0 (Herbicidal rate of 5% or less (almost no effect)); herbicidal effect grade, P: chickweed (chickweed [25]): 5 (Herbicidal rate of 90% or more (almost completely withered)); herbicidal effect grade, Q: false cleavers (false cleavers [26]): 0 (Herbicidal rate of 5% or less (almost no effect)); herbicidal effect grade, R: persian speedwell (persian speedwell [27]): 4 (Herbicidal rate of 70% or more and less than 90%)
